Data published in patent publication US20250009753A1, “METHODS FOR TREATING IMMUNE REFRACTORY LUNG CANCER” (Revolution Medicines, Inc., priority 2022, published 2025).

Test system: eLL2 KRASWT/G12C NRAS−/− A2 tumors
Assay: Immune cell infiltration in tumors by flow cytometry
Type: in vivo, mouse
Conditions: 24 hours post 4 days of treatment, Compound A 200 mg/kg po qd, RMC-4550 30 mg/kg po qd, anti-PD-1 10 mg/kg ip qw
Protocol: Methods: Effects of Compound A (Ex. A556 of Table 1). dosed at 200 mg/kg po qd, RMC-4550 dosed at 30 mg/kg po qd, anti-PD-1 dosed at 10 mg/kg ip qw and the combination therapies on the immune cell infiltration in the eLL2 KRASWT/G12C NRAS−/− A2 tumors have been evaluated 24 hours post 4 days of treatment in 3 mice/group by flow cytometry. Tumor tissue was minced, processed with the Miltenyi Biotec Mouse Tumor Dissociation Kit or the Dri Tumor & Tissue Dissociation Reagent from BD Biosciences, and homogenized with the gentleMACS™ Dissociator. The cell suspension was incubated at 4° C. for 30 minutes with Mouse BD Fc Block (Clone 2.4G2 from BD Pharmingen), 10 minutes with Blue Dead Cell Stain Kit (from Invitrogen) and 30 min in cell staining buffer. Antibodies used targeted CD45 (Clone 30-F11 from BD Biosciences), CD19 (Clone 1D3 from BD Biosciences, CD3E (Clone145-2C11 from Biolegend), CD8b (Clone H35-17.2 from BD Biosciences), CD4 (Clone GK1.5 from Biolegend), CD11b (Clone M1/70 from Biolegend), F4/80 (Clone BM8 from Biolegend), Ly-6G (Clone 1A8 from BD Biosciences) and Ly-6C (Clone HK1.4 from Biolegend).

## Cc1nc(N2CCC3(CC2)CO[C@@H](C)[C@H]3N)c(CO)nc1-c1cccc(Cl)c1Cl [RMC-4550]
  Ly6G+ myeloid suppressor cells: significantly decreased
